Measurements from patent US6024955A, “Peptides and monoclonal antibodies” (Toagosei Co. Ltd., priority 1995, dated 2000).

Tests used:
[1] = system: Human fibrosarcoma (HT-1080); assay: Antitumor test, joint use with an existing carcinostatic, HT-1080 in nude mice; settings: mitomycin alone, 6 mg/kg, tail vein
Experimental: Human fibrosarcoma (HT-1080) subcutaneously subcultured in nude mice was cut out in a section of about 2 mm square and inoculated subcutaneously into 6 nude mice of another group using a trocar. On the next day of the inoculation, the existing carcinostatic mitomycin (3 mg/kg) or cisplatin (5 mg/kg) was injected into the tail vein once, and the monoclonal antibody of the invention was injected into the tail vein at a dose of 12.5 μg/mouse every 4 days from the next day of the transplantation.
In those groups which received an existing carcinostatic alone, 3 or 6 mg/kg of mitomycin or 5 or 10 mg/kg of cisplatin was administered in a similar manner as employed in the joint administration groups (i.e. every 4 days into the tail vein).
In the group which received the monoclonal antibody alone, 12.5 μg/mouse of the monoclonal antibody was administered similarly (i.e. every 4 days into the tail vein).
The tumor volume of each mouse was calculated by measuring the diameter of the tumor with the passage of time. At the same time, changes in body weight were also observed.

MV833 antibody = settings: 20 μM peptide solution coated on plate
Experimental: The 67 peptides synthesized by the above procedures correspond to the entire region of human VPF 121. Therefore, by examining the reactivity of the 67 peptides with MV833 antibody, it is possible to identify the portion of VPF with which MV833 reacts. Then, the reactivity of the 67 peptides with MV833 antibody was examined by an enzyme immunoassay. Briefly, 20 μM peptide solutions each containing one of the 67 peptides were added to a 96-well NOS plate (Coaster) and left at room temperature for 2 hours. After each well was washed with 0.1% BSA-PBS 3 times, 2% BSA-PBS was added thereto and left at room temperature for 1 hour. After the removal of 2% BSA-PBS, MV833 (in 1% BSA-PBS solution) was added to the plate and left at room temperature for 1 hour. After each well was washed with 0.1% BSA-PBS 6 times, peroxidase-labelled sheep anti-mouse IgG (Amersham) (in 0.1% BSA-PBS) was added thereto and left at room temperature for 1 hour. After each well was washed with 0.1% BSA-PBS 6 times, 0.2 M Tris-citrate buffer (pH 5.2) containing 8.3 mg/ml orthophenylenediamine dihydrochloride and 0.01% hydrogen peroxide was added for coloring. The reaction was terminated by adding 2 N sulfuric acid and then absorbance (OD490/650) was measured.

Molecule: CO[C@@]12[C@H](COC(N)=O)C3=C(C(=O)C(C)=C(N)C3=O)N1C[C@@H]1N[C@@H]12 [mitomycin]
- antitumor activity (tumor volume, FIG. 3) [1]: strong antitumor activity was observed
- changes in body weight (FIG. 4) [1]: loss in body weight was also observed

Molecule: FKPSCVPLMRCG [Peptide 32]
- reactivity with MV833 antibody (absorbance OD490/650, FIG. 1) (MV833 antibody): reacted strongly

Molecule: KCECRPKKDRAR [Peptide 63]
- reactivity with MV833 antibody (absorbance OD490/650, FIG. 1) (MV833 antibody): reacted strongly

Molecule: KPSCVPLMRCGG [Peptide 33]
- reactivity with MV833 antibody (absorbance OD490/650, FIG. 1) (MV833 antibody): reacted strongly

Molecule: SFLQHNKCECRP [Peptide 60]
- reactivity with MV833 antibody (absorbance OD490/650, FIG. 1) (MV833 antibody): reacted strongly

Molecule: YIFKPSCVPLMR [Peptide 31]
- reactivity with MV833 antibody (absorbance OD490/650, FIG. 1) (MV833 antibody): reacted strongly
